# Source: patent US20260130845A1, “KETAMINE NASAL SPRAY FORMULATION AND METHODS OF USE” (INESKET LLC, priority 2024, published 2026)
# Key:
# [1] = Open-label absolute bioavailability and pharmacokinetic study of intranasal ketamine in healthy volunteers; format: in vivo, human; conditions: hydro-alcoholic composition, minimum-maximum
# Procedure: This was an open-label study in 25 healthy volunteers. Subjects received single doses of ketamine by intravenous (IV) injection (20 mg), intramuscular (IM) injection (20 mg), or intranasal (IN) administration (20 mg, 40 mg and 80 mg).
# Blood samples for the measurement of plasma concentrations of (R)- and (S)-ketamine and (R)- and (S)-norketamine were collected pre-dose and at 0.033, 0.083, 0.167, 0.25, 0.333, 0.5, 0.75, 1, 1.25, 2, 2.5, 3, 4, 6, 8, 12, 16, and 24 hours post-dose for each study period.
# All estimates for the parent and metabolite were consistent within each formulation or dose for the racemate, (R)-, and (S)-enantiomers. After IN administration, the estimates were slightly higher for the metabolite than the parent.
# [2] = acidic pH near 4.5
# Description: A Buffer may be used to control the pH of the nasal spray solution at, or near 4.5. […] Also, the local pH value inside the nasal cavity directly influences the rate and extent of drug absorption. […] Additionally, maintaining pH at or above 4.0 helps to reduce local nasal tract irritation. The buffer is optional.
Compound,AUC(0-1 hr) ([1]; dose 20 mg),AUC(0-4 hr) ([1]; dose 20 mg),Tmax ([1]; dose 20 mg),AUC(0-1 hr) ([1]; dose 40 mg),AUC(0-4 hr) ([1]; dose 40 mg),Tmax ([1]; dose 40 mg),AUC(0-1 hr) ([1]; dose 10 mg),AUC(0-4 hr) ([1]; dose 10 mg),Tmax ([1]; dose 10 mg),stability of solutions [2]
"CNC1(c2ccccc2Cl)CCCCC1=O (racemic) [(RS)-Ketamine, 2-(2-chlorophenyl)-2-(methylamino)-cyclohexanone]",28.7-127 hr′ ng/mL,60.0-209 hr′ ng/mL,4.98 to 30 min,71.4-225 hr′ ng/mL,160-433 hr′ ng/mL,10 to 30 min,–,–,–,–
CN[C@@]1(c2ccccc2Cl)CCCCC1=O [(R)-Ketamine],40.5-129 hr′ ng/mL,93.0-251 hr′ ng/mL,–,–,–,–,15.9-70.8 hr′ ng/mL,33.6-118 hr′ ng/mL,–,–
CN[C@]1(c2ccccc2Cl)CCCCC1=O [(S)-Ketamine],30.9-96.7 hr′ ng/mL,66.9-181 hr′ ng/mL,10 to 30 min,–,–,–,12.8-55.8 hr′ ng/mL,26.4-90.4 hr′ ng/mL,5 to 20 min,–
CNC1(c2ccccc2Cl)CCCCC1=O.Cl (centres unmarked) [Es/ketamine HCl],–,–,–,–,–,–,–,–,–,better stability
